From US20110053770A1, “SUBSTITUTED AMINOTHIAZOLES AND THEIR USE AS FUNGICIDES” (BAYER CROPSCIENCE AG, priority 2009, published 2011)
Marks after values point to notes of the source that are not given here.

Assay: logP by HPLC on reversed-phase columns (C 18), EEC directive 79/831 Annex V.A8
Assay type: physicochemical
Conditions: for log P (**) / log P (***): LC-MS; for log P (**): pH 2.7, 0.1% aqueous formic acid and acetonitrile; for log P (***): neutral range, pH 7.8, 0.001 molar aqueous ammonium bicarbonate and acetonitrile
Experimental: Calibration was carried out using unbranched alkan-2-ones (having from 3 to 16 carbon atoms) with known logP values (the logP values were determined by the retention times using linear interpolation between two successive alkanones).

| log P (**) (acidic range) | log P (***) | log P (*) (acidic range, pH 2.3, 0.1% aqueous phosphoric acid and acetonitrile) | Structure (SMILES) |
| --- | --- | --- | --- |
| 1.94 | 3.72 | – | FC(F)(F)c1cccc(-c2csc(N=C3CCCCN3)n2)c1Cl [compound 8, 4-[2-chloro-3-(trifluoromethyl)phenyl]-N-[(2E/Z)-piperidin-2-yl-idene]-1,3-thiazole-2-amine] |
| 2.11 | 3.9 | 2.11 | Fc1ccc(Oc2ccccc2-c2csc(N=C3CCCCN3)n2)c(F)c1 [compound 7, 4-[2-(2,4-difluorophenoxy)phenyl]-N-[(2E/Z)-piperidin-2-ylidene]-1,3-thiazole-2-amine] |
| 0.27** | – | – | c1ccc(-c2csc(N=C3CCCCN3)n2)nc1 [compound 61, N-[(2E/Z)-piperidin-2-ylidene]-4-(pyridin-2-yl)-1,3-thiazole-2-amine] |
